Columns and labels:
5-HT transporter = biological target: T1, 5-HT transporter (Rattus norvegicus, UniProt P31652); assay: 5-HT uptake inhibition, synaptosomes from rat brain (medulla and pons); type: biochemical
T1 construct: from tissue; host or cells: rat brain (medulla and pons), synaptosomes, P2 fraction
Outline: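 Freshly isolated rat brain synaptosomes (P2 fraction): hypothalamus for NA uptake, medulla/pons for 5-HT uptake. Uptake of [3H]-NA (7.5 min) or [3H]-5-HT (5 min) at room temperature under O2, stopped by filtration over GF/B. Retained radioactivity counted by scintillation.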

NA transporter = biological target: T2, NA transporter (Rattus norvegicus, UniProt Q9WTR4); assay: Noradrenalin (NA) uptake inhibition, synaptosomes from rat brain (hypothalamus); type: biochemical
T2 construct: from tissue; host or cells: rat brain (hypothalamus), synaptosomes, P2 fraction
Description: b) Method for Determining Noradrenalin and 5-HT Uptake Inhibition:
Synaptosomes from rat brain regions are freshly isolated for in vitro studies, as described in the publication “The isolation of nerve endings from brain” by E. G. Gray and V. P. Whittaker, J. Anatomy 96, pages 79-88, 1962. The corresponding literature description is hereby introduced as a reference and is deemed to be part of the disclosure.
The tissue (hypothalamus for the determination of noradrenalin uptake inhibition and medulla and pons for the determination of 5-HT uptake inhibition) is homogenised in ice-cooled 0.32 M sucrose (100 mg of tissue/1 mL) in a glass homogeniser with Teflon pestle using five complete up and down strokes at 840 revolutions/minute.
The homogenate is centrifuged at 4° C. for 10 minutes at 1000 g. After subsequent centrifugation at 17000 g for 55 minutes, the synaptosomes (P2 fraction) are obtained, which are resuspended in 0.32 M […] (0.5 mL/100 mg of original weight).
The particular uptake is measured in a 96-well microtitre plate. The volume is 250 μL and the incubation proceeds at room temperature (approx. 20-25° C.) under an O2 atmosphere.
The incubation time is 7.5 minutes for [^3H]-NA and 5 minutes for [^3H]-5-HT. The 96 samples are then filtered through a Unifilter GF/B® microtitre plate (Packard) and washed with 200 mL of incubated buffer using a “Brabdel MPXRI-96T Cell-Harvester”. The Unifilter GF/B plate is dried for 1 hour at 55° C. The plate is then sealed with a Back Seal® (Packard) and 35 μL of scintillation fluid are added per well (Ultima Gold®, Packard). After sealing with a top Seal® (Packard) and establishing an equilibrium (around 5 hours), radioactivity is determined in a “Trilux 1450 Microbeta” (Wallac).
The quantity of protein used in the above determination corresponds to the values known from the literature, as for example described in “Protein measurement with the folin phenol reagent”, Lowry et al., J. Biol. Chem., 193, 265-275, 1951.
A detailed description of the method may additionally be found in the literature, for example in M. Ch. Frink, H.-H. Hennies, W. Engelberger, M. Haurand and B. Wilffert (1996) Arzneim.-Forsch./Drug Res. 46 (III), 11, 1029-1036.
The following characteristics were determined for the NA or 5-HT transporter: […]

T2 sequence (Q9WTR4 1-597): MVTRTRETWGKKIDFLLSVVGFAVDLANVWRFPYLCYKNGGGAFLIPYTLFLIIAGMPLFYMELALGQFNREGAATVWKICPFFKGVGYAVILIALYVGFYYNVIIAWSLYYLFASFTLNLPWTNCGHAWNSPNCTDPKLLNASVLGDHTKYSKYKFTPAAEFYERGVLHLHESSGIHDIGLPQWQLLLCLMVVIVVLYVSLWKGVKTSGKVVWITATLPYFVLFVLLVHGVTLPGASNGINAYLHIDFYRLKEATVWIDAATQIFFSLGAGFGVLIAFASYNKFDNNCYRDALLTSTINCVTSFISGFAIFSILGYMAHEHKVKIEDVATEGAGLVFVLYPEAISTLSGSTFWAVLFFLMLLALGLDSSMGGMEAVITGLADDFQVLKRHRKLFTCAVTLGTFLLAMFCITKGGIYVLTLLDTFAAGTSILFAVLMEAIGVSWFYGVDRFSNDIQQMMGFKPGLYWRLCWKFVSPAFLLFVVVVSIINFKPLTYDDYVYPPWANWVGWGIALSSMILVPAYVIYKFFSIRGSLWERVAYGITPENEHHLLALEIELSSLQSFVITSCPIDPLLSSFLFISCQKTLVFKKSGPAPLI
T1 sequence (P31652 whole entry): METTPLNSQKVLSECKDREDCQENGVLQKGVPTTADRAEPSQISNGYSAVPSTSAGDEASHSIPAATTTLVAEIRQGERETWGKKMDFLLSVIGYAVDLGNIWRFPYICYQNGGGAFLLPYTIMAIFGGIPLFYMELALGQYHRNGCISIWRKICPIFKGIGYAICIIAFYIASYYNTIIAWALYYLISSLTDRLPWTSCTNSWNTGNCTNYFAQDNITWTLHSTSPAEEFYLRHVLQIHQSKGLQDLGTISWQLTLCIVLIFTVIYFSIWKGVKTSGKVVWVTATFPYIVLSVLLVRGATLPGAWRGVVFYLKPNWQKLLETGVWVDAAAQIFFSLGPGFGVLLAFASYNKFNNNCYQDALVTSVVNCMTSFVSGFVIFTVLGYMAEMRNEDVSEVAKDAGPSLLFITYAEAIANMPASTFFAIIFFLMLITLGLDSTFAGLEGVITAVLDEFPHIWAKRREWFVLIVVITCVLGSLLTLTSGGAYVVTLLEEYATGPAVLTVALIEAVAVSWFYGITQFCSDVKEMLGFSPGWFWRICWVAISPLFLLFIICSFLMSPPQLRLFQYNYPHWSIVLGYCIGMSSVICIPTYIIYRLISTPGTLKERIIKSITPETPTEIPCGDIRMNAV

## Cc1ccc(NC(=O)N2CCc3onc(C(=O)NCCc4ccccc4)c3C2)cc1[N+](=O)[O-] [Example 4, 6,7-dihydro-4H-isoxazolo[4,5-c]pyridine-3,5-dicarboxylic acid 5-[(4-methyl-3-nitro-phenyl) amide] 3-(phenethyl amide)]
5-HT transporter
  5-HT uptake (rat), 10 μM, % inhibition: 45%
NA transporter
  NA Uptake (rat), 10 μM, % inhibition: 57%

## O=C(NCCc1ccccc1)c1noc2c1CN(C(=O)Nc1cccc(F)c1)CC2 [Example 8, 6,7-dihydro-4H-isoxazolo[4,5-c]pyridine-3,5-dicarboxylic acid 5-[(3-fluorophenyl) amide] 3-(phenethyl amide)]
5-HT transporter
  5-HT uptake (rat), 10 μM, % inhibition: 54%
NA transporter
  NA Uptake (rat), 10 μM, % inhibition: 66%

## O=C(NCc1ccccc1)c1noc2c1CN(C(=O)NCCc1ccccc1)CC2 [Example 10, 6,7-dihydro-4H-isoxazolo[4,5-c]pyridine-3,5-dicarboxylic acid 3-benzyl amide 5-(phenethyl amide)]
5-HT transporter
  5-HT uptake (rat), 10 μM, % inhibition: 51%
NA transporter
  NA Uptake (rat), 10 μM, % inhibition: 42%

## N#Cc1cccc(NC(=O)N2CCc3onc(C(=O)NCc4cccs4)c3C2)c1 [Example 12, 6,7-dihydro-4H-isoxazolo[4,5-c]pyridine-3,5-dicarboxylic acid 5-[(3-cyano-phenyl) amide]3-[(thiophen-2-ylmethyl) amide]]
5-HT transporter
  5-HT uptake (rat), 10 μM, % inhibition: 51%
NA transporter
  NA Uptake (rat), 10 μM, % inhibition: 46%

## CCOc1ccc(NC(=O)N2CCc3onc(C(=O)Nc4ccccc4)c3C2)cc1 [Example 13, 6,7-dihydro-4H-isoxazolo[4,5-c]pyridine-3,5-dicarboxylic acid 5-[(4-ethoxy-phenyl) amide] 3-phenyl amide]
5-HT transporter
  5-HT uptake (rat), 10 μM, % inhibition: 48%
NA transporter
  NA Uptake (rat), 10 μM, % inhibition: 51%

## CC(NC(=O)N1CCc2onc(C(=O)NCCc3ccccc3)c2C1)c1cccc2ccccc12 (stereo not drawn) [Example 18, 6,7-dihydro-4H-isoxazolo[4,5-c]pyridine-3,5-dicarboxylic acid 5-[(1-naphthalen-1-yl-ethyl) amide]3-(phenethyl amide)]
5-HT transporter
  5-HT uptake (rat), 10 μM, % inhibition: 42%
NA transporter
  NA Uptake (rat), 10 μM, % inhibition: 47%

## O=C(O)CC1(CC(=O)N2CCc3onc(C(=O)Nc4ccccc4)c3C2)CCCC1 [Example 28, {1-[2-oxo-2-(3-phenylcarbamoyl-6,7-dihydro-4H-isoxazolo[4,5-c]pyridin-5-yl)-ethyl]-cyclopentyl}acetic acid]
5-HT transporter
  inhibition at 10 µM: 55%
NA transporter
  inhibition at 10 µM: 44%

## O=C(NC1CCN(Cc2ccc3ccccc3c2)C1)c1noc2c1CN(S(=O)(=O)c1ccccc1)CC2 (stereo not drawn) [Example 33, 5-benzenesulfonyl-4,5,6,7-tetrahydro-isoxazolo[4,5-c]pyridine-3-carboxylic acid (1-naphthalen-2-ylmethyl-pyrrolidin-3-yl) amide]
5-HT transporter
  inhibition at 10 µM: 74%
NA transporter
  inhibition at 10 µM: 88%

## COc1ccc(CNC(=O)c2noc3c2CN(S(=O)(=O)c2ccccc2)CC3)cc1OC [Example 47, 5-benzenesulfonyl-4,5,6,7-tetrahydro-isoxazolo[4,5-c]pyridine-3-carboxylic acid 3,4-dimethoxy-benzyl amide]
5-HT transporter
  inhibition at 10 µM: 68%
NA transporter
  inhibition at 10 µM: 67%

## O=C(c1noc2c1CN(S(=O)(=O)c1cc(Cl)ccc1Cl)CC2)N(CCc1ccccc1)Cc1ccccc1 [Example 59, 5-(2,5-dichloro-benzenesulfonyl)-4,5,6,7-tetrahydro-isoxazolo[4,5-c]pyridine-3-carboxylic acid benzyl-phenethyl amide]
5-HT transporter
  inhibition at 10 µM: 71%
NA transporter
  inhibition at 10 µM: 79%

## O=C(c1noc2c1CN(S(=O)(=O)c1cccc(C(F)(F)F)c1)CC2)N(CCc1ccccc1)Cc1ccccc1 [Example 68, 5-(3-trifluoromethyl-benzenesulfonyl)-4,5,6,7-tetrahydro-isoxazolo[4,5-c]pyridine-3-carboxylic acid benzyl-phenethyl amide]
5-HT transporter
  inhibition at 10 µM: 63%
NA transporter
  inhibition at 10 µM: 84%

## O=C(NCCc1ccccc1)c1noc2c1CN(C(=O)c1ccc(F)c(Cl)c1)CC2 [Example 105, 5-(3-chloro-4-fluoro-benzoyl)-4,5,6,7-tetrahydro-isoxazolo[4,5-c]pyridine-3-carboxylic acid phenethyl amide]
NA transporter
  inhibition at 10 µM: 62%

## COc1ccc(OCCNC(=O)c2noc3c2CN(S(=O)(=O)c2ccc(C)cc2)CC3)cc1 [Example 109, 5-(toluene-4-sulfonyl)-4,5,6,7-tetrahydro-isoxazolo[4,5-c]pyridine-3-carboxylic acid [2-(4-methoxy-phenoxy)-ethyl] amide]
NA transporter
  inhibition at 10 µM: 64%

## O=C(c1noc2c1CN(S(=O)(=O)c1cc(Cl)ccc1Cl)CC2)N1CCN(c2ccccc2Cl)CC1 [Example 110, [4-(2-chlorophenyl)-piperazin-1-yl]-[5-(2,5-dichloro-benzenesulfonyl)-4,5,6,7-tetrahydro-isoxazolo[4,5-c]pyridin-3-yl]-methanone]
NA transporter
  inhibition at 10 µM: 86%

## CCOC(=O)CCNC(=O)c1noc2c1CN(C(=O)c1c(F)ccc(C)c1F)CC2 [Example 111, 3-{[5-(2,6-difluoro-3-methyl-benzoyl)-4,5,6,7-tetrahydro-isoxazolo[4,5-c]pyridine-3-carbonyl]-amino}-propionic acid ethyl ester]
NA transporter
  inhibition at 10 µM: 66%

## O=C(NCCN1CCCC1)c1noc2c1CN(S(=O)(=O)c1cccc(Cl)c1)CC2 [Example 118, 5-(3-chloro-benzenesulfonyl)-4,5,6,7-tetrahydro-isoxazolo[4,5-c]pyridine-3-carboxylic acid (2-pyrrolidin-1-yl-ethyl) amide]
NA transporter
  inhibition at 10 µM: 63%

## Cc1ccc(S(=O)(=O)N2CCc3onc(C(=O)NC(C)C(=O)OC(C)(C)C)c3C2)cc1 (stereo not drawn) [Example 120, 2-{[5-(toluene-4-sulfonyl)-4,5,6,7-tetrahydro-isoxazolo[4,5-c]pyridine-3-carbonyl]-amino}-propionic acid tert-butyl ester]
NA transporter
  inhibition at 10 µM: 62%

## CCOC(=O)CCNC(=O)c1noc2c1CN(S(=O)(=O)c1ccc(Cl)cc1)CC2 [Example 121, 3-{[5-(4-chloro-benzenesulfonyl)-4,5,6,7-tetrahydro-isoxazolo[4,5-c]pyridine-3-carbonyl]-amino}-propionic acid ethyl ester]
NA transporter
  inhibition at 10 µM: 61%

## CN(C)S(=O)(=O)N1CCc2onc(C(=O)NCCc3ccc(Cl)c(Cl)c3)c2C1 [Example 122, 5-dimethylsulfamoyl-4,5,6,7-tetrahydro-isoxazolo[4,5-c]pyridine-3-carboxylic acid [2-(3,4-dichloro-phenyl)-ethyl] amide]
NA transporter
  inhibition at 10 µM: 63%

## CCOC(=O)CCNC(=O)c1noc2c1CN(C(=O)Cc1ccc3ccccc3c1)CC2 [Example 125, 3-{[5-(2-naphthalen-2-yl-acetyl)-4,5,6,7-tetrahydro-isoxazolo[4,5-c]pyridine-3-carbonyl]-amino}-propionic acid ethyl ester]
NA transporter
  inhibition at 10 µM: 63%

## COc1ccc(CNC(=S)N2CCc3onc(C(=O)NC4CCCC4)c3C2)cc1 [Example 127, 5-(4-methoxy-benzylthiocarbamoyl)-4,5,6,7-tetrahydro-isoxazolo[4,5-c]pyridine-3-carboxylic acid cyclopentyl amide]
NA transporter
  inhibition at 10 µM: 63%

## COCCNC(=S)N1CCc2onc(C(=O)NCCc3ccccc3)c2C1 [Example 130, 5-(2-methoxy-ethylthiocarbamoyl)-4,5,6,7-tetrahydro-isoxazolo[4,5-c]pyridine-3-carboxylic acid phenethyl amide]
NA transporter
  inhibition at 10 µM: 67%

## O=C(NCCc1ccccc1)c1noc2c1CN(C(=S)Nc1c(F)c(F)c(F)c(F)c1F)CC2 [Example 131, 5-pentafluorophenylthiocarbamoyl-4,5,6,7-tetrahydro-isoxazolo[4,5-c]pyridine-3-carboxylic acid phenethyl amide]
NA transporter
  NA Uptake (rat), 10 μM, % inhibition: 73%

## CC(NC(=S)N1CCc2onc(C(=O)NCCc3ccccc3)c2C1)c1ccccc1 (stereo not drawn) [Example 132, 5-(1-phenyl-ethylthiocarbamoyl)-4,5,6,7-tetrahydro-isoxazolo[4,5-c]pyridine-3-carboxylic acid phenethyl amide]
NA transporter
  inhibition at 10 µM: 76%

## O=C(Nc1ccccc1)c1noc2c1CN(Cc1ccc3ccccc3c1Br)CC2 [Example 135, 5-(1-bromo-naphthalen-2-ylmethyl)-4,5,6,7-tetrahydro-isoxazolo[4,5-c]pyridine-3-carboxylic acid phenyl amide]
NA transporter
  inhibition at 10 µM: 60%
